{"source": "patent US8580308B2", "about": "“Modafinil pharmaceutical compositions” (Cephalon, Inc., priority 2002, dated 2013)", "key": {"density of modafinil": {"assay": "density of modafinil", "assay_type": "physicochemical", "text": "Although primarily described herein with respect to “cumulative total number of particles,” it is within the ability of one skilled in the art to also make blends based upon weight of the portions used from each of the discrete lots, as detailed above. In particular, the density of modafinil is about 0.50 grams per cubic centimeter (bulk density) and about 0.60 grams per cubic centimeter (tap density). Using the density information, the statistical information that is described herein, and assuming the particles of modafinil are spherical, accurate determinations of the appropriate weight of particles in each discrete lot can be made. Similar calculations can be made with respect to the surface area of the particles."}, "[1]": {"details": "mice, single administration; cited from earlier work"}, "[2]": {"details": "monkeys, single administration; cited from earlier work"}, "[3]": {"details": "humans; cited from earlier work"}}, "data": [{"smiles": "NC(=O)C[S+]([O-])C(c1ccccc1)c1ccccc1", "note": "(centres unmarked) [modafinil, 2-(benzhydrylsulfinyl)acetamide]", "values": [{"measurement": "bulk density", "setting": "density of modafinil", "value": "about 0.50 grams per cubic centimeter"}, {"measurement": "tap density", "setting": "density of modafinil", "value": "about 0.60 grams per cubic centimeter"}, {"measurement": "locomotor activity", "setting": "[1]", "value": "increased locomotor activity"}, {"measurement": "nocturnal activity", "setting": "[2]", "value": "increased nocturnal activity"}, {"measurement": "treatment of idiopathic hypersomnia and narcolepsy", "setting": "[3]", "value": "successfully tested"}]}]}
